Read-outs that look alike come from different tables or passages of the source. Where a SMILES comes first, the peptide text is derived from it. [ ]: non-standard residue; d: D form. Nva = CCC[C@H](N)C(=O)O
T1: AdipoR1 (Homo sapiens, UniProt Q96A54)
T1 construct: The cDNAs encoding full-length of AdipoR1 or AdipoR2 were then sub-cloned into the mammalian expression vector pBEX and pcDNA3.1–Myc-His(+); His (C); Myc (C); made in house; host or cells: CHO cells
T1 sequence (Q96A54 1-375): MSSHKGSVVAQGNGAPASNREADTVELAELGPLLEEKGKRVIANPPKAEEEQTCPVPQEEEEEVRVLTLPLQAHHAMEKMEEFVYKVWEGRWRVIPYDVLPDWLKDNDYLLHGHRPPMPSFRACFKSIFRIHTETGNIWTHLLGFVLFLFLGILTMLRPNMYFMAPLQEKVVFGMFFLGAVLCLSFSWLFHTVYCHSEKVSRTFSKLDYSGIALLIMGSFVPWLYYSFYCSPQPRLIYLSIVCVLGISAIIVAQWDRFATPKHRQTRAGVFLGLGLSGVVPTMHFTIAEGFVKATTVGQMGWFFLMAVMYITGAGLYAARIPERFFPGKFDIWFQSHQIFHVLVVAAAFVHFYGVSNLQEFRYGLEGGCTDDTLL

T2: AdipoR2 (UniProt Q86V24)
T2 sequence (Q86V24 1-386): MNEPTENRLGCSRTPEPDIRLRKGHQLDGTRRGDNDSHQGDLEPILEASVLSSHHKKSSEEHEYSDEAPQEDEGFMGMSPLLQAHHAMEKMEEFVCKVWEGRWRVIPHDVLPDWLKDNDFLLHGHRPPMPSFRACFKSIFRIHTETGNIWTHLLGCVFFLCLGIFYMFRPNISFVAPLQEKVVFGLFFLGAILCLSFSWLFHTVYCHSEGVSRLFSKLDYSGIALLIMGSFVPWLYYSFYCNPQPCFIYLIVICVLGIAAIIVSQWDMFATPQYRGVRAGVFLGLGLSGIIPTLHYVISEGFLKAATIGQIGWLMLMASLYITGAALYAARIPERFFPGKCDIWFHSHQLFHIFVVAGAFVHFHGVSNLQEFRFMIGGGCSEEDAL

B1: g-Ad: recombinant carboxyl-terminal globular domain of adiponectin with C-terminal His-tag, produced in BL21(DE3) cells; positive control (protein)
chain: GEGAYVYRSAFSVGLETYVTIPNMPIRFTKIFYNQQNHYDGSTGKFHCNIPGLYYFAYHITVYMKDVKVSLFKKDKAMLFTYDQYQENNVDQASGSVLLHLEVGDQVWLQVYGEGERNGLYADNDNDSTFTGFLLYHDTN
modifications: C-terminal His-tag left out

Tests used:
[1] = test system: AMPK phosphorylation (AdipoR1 signaling) in MDA-MB-231 cells; test: Western blot of AMPK phosphorylation in MDA-MB-231 cells; type: cell-based, human; conditions: MDA-MB-231 cells treated at IC50 concentration for 6 h
Procedure: (§1) Cells were grown to 80% confluence, harvested and aliquoted into 100 mm dishes in serum free media. Cells were allowed to attach overnight and then the serum free media was removed and then cells were washed in PBS twice. Different doses of compounds were prepared in the normal media and added to different dishes for an additional 6 h. Cells were washed 3 times with ice-cold PBS and cell lysates were prepared by scraping cells into lysis buffer A (RIPA buffer, 2 mM dithiothreitol […], 1×Halt protease inhibitor cocktail (Thermo scientific), and 1×Halt phosphatase inhibitor cocktail (Thermo scientific)). The cells were allowed to swell on ice (5 min), after which the homogenate was centrifuged. The supernatants were transferred to fresh tubes and protein concentrations were determined using the Bio-Rad protein assay (Bio-Rad Laboratories, Inc.) per manufacturer’s instructions. Aliquots of the cell lysates were stored at −80°C.
(§2) Equal amounts of total protein (50 µg) were subjected to electrophoresis (10% tris-HCl, 1.0 mm gels) and transferred to nitrocellulose membranes. Membranes were blocked in TBS containing 0.05% Tween 20 (TBST) and 5% nonfat milk or 5% BSA for 1 hour at room temperature. Appropriately diluted primary antibodies were incubated in TBST/5% nonfat milk or TBST/5% BSA for 2 h at room temperature or overnight at 4 °C. Membranes were washed in TBST three times for 15 min each. Appropriately diluted secondary antibodies were incubated in superblock blocking buffers (Thermo Scientific) for 1 h at room temperature. Membranes were washed in TBST three times for 15 min. Proteins were detected by Amersham™ ECL plus western blotting detection system (GE healthcare). The following antibodies were used: anti-AdipoR1 M18, anti-AdipoR2 C12 (Santa Cruz Biotechnology, Santa Cruz, CA), anti-p-AMPKα(T172), anti-AMPKα, and anti-β-actin (Cell Signaling, Danvers, MA).
(§3) It is well established that adiponectin activates AMPK and p38 MAPK through AdipoR1 or PPARα through AdipoR2 to mediate its downstream signaling cascades, [9], [12], [14]. […] The levels of phosphorylation of AMPK and phosphorylation of PPARα were examined and the relative expression levels of the phospho-protein to the total expression of protein levels were quantified using ImageJ software (NIH) ( Fig. 3 ).
(§4) Figure 3 Effects of hit compounds on adiponectin receptor signaling pathways. […] A total 50 µg of cell lysate was loaded to each lane. Western blot was performed follow the protocol in materials and methods section.

AdipoR1 = biological target: T1, AdipoR1; test: Competitive FP assay, displacement of probe 1 from AdipoR1; type: binding
Procedure: (§5) Unlabeled short peptide 3 was titrated against the FITC-labeled peptide and adiponectin receptor mixture. Plates were incubated at room temperature for up to 3 hours or 30 min at different temperatures. FP values were taken and IC50 values were calculated.
(§6) Master mixtures containing fluorescein-labeled probe 1 and adiponectin receptor (AdipoR1 or AdiopR2, 2 µM and probe 1 at 100 nM) in a reaction volume of 19 µl were prepared and loaded to plates. The library compounds (10 µM –0.078 µM, half dilutions) were prepared separately and transferred into the assay plates. The first and last columns of each plate were used as positive and negative control wells. Wells containing the drug only were used as controls to detect auto-fluorescence of the compounds in the total fluorescence assay. After subtraction of the background signal, data was processed and the IC50 values were determined by non-linear least square fitting using SigmaPlot 11.0.
(§7) Given that the present study is a screening study, peptide 3 was chosen as the positive control for cost-efficiency purposes.
(§8) To optimize the FP assay properly, it was necessary to assess the stability of the FP assay. The conditions for the FP assay were established by testing various parameters including incubation temperature, time, TF values, ΔmP values, and DMSO tolerance. […] In summary, the competitive FP binding assay conditions ideal for identifying adiponectin receptor agonists are: i) 2 µM adiponectin receptor, ii) 100 nM probe 1, iii) 5% final DMSO concentration (v/v), and iv) incubation for 30 min at 25°C before reading the plate.
(§9) A pilot screen against the natural product library of 10,000 compounds described above was performed at screening concentrations of 10 µM to 0.078 µM (half serial dilutions) in 5% DMSO (v/v). Controls present in each assay plate consisted of 5% DMSO (negative control) or peptide 3 (positive control).
(§10) We screened a library of 10,000 natural compounds for adiponectin agonists. […] 46 compounds that could generate IC50 curves were identified as initial hits.

MDA-MB-231 cells = test: Cell viability assay (CellTiter-Blue) in MDA-MB-231 cells; type: cell-based; conditions: Homo sapiens, read-out: IC50 (µM) MDA-MB-231 cells, cell viability
Procedure: (§11) All cell lines were obtained from the American Type Culture Collection (ATCC). MCF-7 and MDA-MB-231 cells were maintained in DMEM containing 10% fetal bovine serum and supplied with 1% penicillin/streptomycin. All cells were maintained in a 5% CO2 atmosphere at 37°C.
(§12) The effects of the lead compounds on cell proliferation were tested in MCF-7 and MDA-MB-231 cells. Cells were grown to 80% confluence, harvested and aliquoted into 384-well plates in a total volume of 45 µl per well. The outer wells were inoculated with sterile water to minimize evaporation from the sample wells. Cells were allowed to attach overnight and 5 µl culture media containing either vehicles or drug were added. Cell proliferation was evaluated using CellTilter-Blue reagent (Promega, China) according to manufacturer’s instructions after 72-h incubation. Fluorescence was measured with an excitation at 530 nm and emission at 590 nm. After background subtraction, cell viability values were normalized to vehicle controls and expressed as percentage of the mean of the relative vehicle controls.
(§13) To further confirm the agonistic activity of hit compounds, MDA-MB-231 and MCF-7 cells were treated with different concentrations of g-Ad or drug (20 µM to 1.2 nM) for 72 hours and cell viability was measured. Thus, four compounds (arctiin, (-)-arctigenin, matairesinol and gramine) that show agonistic activity against adiponectin receptor 1 and four compounds (deoxyschizandrin, taxifoliol, syringing and parthenolide) that show agonistic activity against adiponectin receptor 2 were identified.

[2] = test system: PPARα phosphorylation (AdipoR2 signaling) in MCF-7 cells; test: Western blot of PPARα phosphorylation in MCF-7 cells; type: cell-based, human; conditions: MCF-7 cells treated at IC50 concentration for 6 h
Procedure: as §1, §2, §3, §4

MCF-7 cells = test: Cell viability assay (CellTiter-Blue) in MCF-7 cells; type: cell-based; conditions: Homo sapiens, read-out: IC50 (µM) MCF-7 cells, cell viability
Procedure: as §11, §12, §13

AdipoR2 = biological target: T2, AdipoR2; test: Competitive FP assay, displacement of probe 1 from AdipoR2; type: binding, human
Procedure: as §5, §6, §7, §8, §9, §10

[3] = primary screen, 2 µM receptor, 100 nM probe 1, 30 min, 25°C, read-out: IC50 vs AdipoR1 (µM) Primary screen
[4] = validation, 2 µM receptor, 100 nM probe 1, 30 min, 25°C, read-out: IC50 vs AdipoR1 (µM) Validated
[5] = primary screen, 2 µM receptor, 100 nM probe 1, 30 min, 25°C, read-out: IC50 vs AdipoR2 (µM) Primary screen
[6] = validation, 2 µM receptor, 100 nM probe 1, 30 min, 25°C, read-out: IC50 vs AdipoR2 (µM) Validated

| Molecule | Effect on AMPK phosphorylation [1] | IC50 (AdipoR1; [3]) [µM] | IC50 (AdipoR1; [4]) [µM] | IC50 (MDA-MB-231 cells; MDA-MB-231, 72 h) [µM] | Effect on PPARα phosphorylation level [2] | IC50 (MCF-7 cells; MCF7, 72 h) [µM] | IC50 (AdipoR2; [5]) [µM] | IC50 (AdipoR2; [6]) [µM] | other results |
| --- | --- | --- | --- | --- | --- | --- | --- | --- | --- |
| COc1cc(C[C@H]2C(=O)OC[C@@H]2Cc2ccc(OC)c(OC)c2)ccc1O [Compound 2, (-)-Arctigenin] | elevated | 2.6 | 2.2 ± 0.8 | 4.5 ± 0.4 | inhibited | > 10 | > 5 | > 5 | – |
| COc1cc(/C=C/CO)cc(OC)c1O[C@@H]1O[C@H](CO)[C@@H](O)[C@H](O)[C@H]1O [Compound 5, Syringin] | decreased | – | – | > 10 | increased | 6.8 ± 0.8 | 4.6 | 4.5 ± 0.5 | IC50 (AdipoR1): > 5 µM; IC50 (AdipoR1; read-out: IC50 vs AdipoR1 (µM) Validated, validation, 2 µM receptor, 100 nM probe 1, 30 min, 25°C): > 5 µM |
| O=C1c2c(O)cc(O)cc2O[C@H](c2ccc(O)c(O)c2)[C@H]1O [Compound 6, Taxifoliol] | decreased | – | – | – | increased | – | – | – | IC50 (MDA-MB-231 cells; MDA-MB-231, 72 h, 20 µM to 1.2 nM): > 10 µM; IC50 (MCF-7 cells; MCF7, 72 h, 20 µM to 1.2 nM): 4.4 ± 0.5 µM |
| O=c1cc(-c2ccccc2)oc2cc(O)cc(O)c12 [Compound 8, Chrysin] | – | > 5 | > 5 | – | – | – | – | – | IC50 (AdipoR2; read-out: IC50 vs AdipoR2 (µM) Primary screen, primary screen, 2 µM receptor, 100 nM probe 1, 30 min, 25°C): 4.9 µM; IC50 (AdipoR2; read-out: IC50 vs AdipoR2 (µM) Validated, validation, 2 µM receptor, 100 nM probe 1, 30 min, 25°C): > 5 µM; IC50 vs AdipoR2 (µM) Validated (AdipoR2; validation, 2 µM receptor, 100 nM probe 1, 30 min, 25°C): failed in the validation |
| CCC[C@H](NC(=O)[C@@H]1CCCN1C(=O)[C@@H](NC(=O)[C@H](N)CC(N)=O)[C@@H](C)CC)C(=O)N[C@@H](CC(C)C)C(=O)N[C@@H](Cc1ccc(O)cc1)C(=O)N[C@H](CO)C(=O)N[C@@H](Cc1ccccc1)C(=O)N[C@@H](C)C(=O)N[C@H](CO)C(N)=O [Peptide 3, H-DAsn-Ile-Pro-Nva-Leu-Tyr-DSer-Phe-Ala-DSer-NH2, reference compound] (H-[dN]IP[Nva]LY[dS]FA[dS]-NH2) | – | – | – | – | – | – | – | – | IC50 (AdipoR2; positive control validation, titrated against probe 1 – AdipoR2 mixture, read-out: IC50 against AdipoR2, competition with probe 1): 2.46 ± 0.25 µM |
| B1 | – | – | – | – | – | – | – | – | IC50 (AdipoR1; positive control validation, titrated against probe 1 – AdipoR1 mixture, read-out: IC50 against AdipoR1, competition with probe 1): 3.4 ± 0.7 µM |
